The text below walks through data of patent publication US20240400553A1, “AMINE BASED MATRIPTASE 2 INHIBITORS AND USES THEREOF” (Disc Medicine, Inc., priority 2023, published 2024).

One experiment has as its target T1, Human Recombinant Matriptase 2 (Homo sapiens, UniProt Q8IU80).
T1 construct: made in house
T1 sequence (Q8IU80 1-811): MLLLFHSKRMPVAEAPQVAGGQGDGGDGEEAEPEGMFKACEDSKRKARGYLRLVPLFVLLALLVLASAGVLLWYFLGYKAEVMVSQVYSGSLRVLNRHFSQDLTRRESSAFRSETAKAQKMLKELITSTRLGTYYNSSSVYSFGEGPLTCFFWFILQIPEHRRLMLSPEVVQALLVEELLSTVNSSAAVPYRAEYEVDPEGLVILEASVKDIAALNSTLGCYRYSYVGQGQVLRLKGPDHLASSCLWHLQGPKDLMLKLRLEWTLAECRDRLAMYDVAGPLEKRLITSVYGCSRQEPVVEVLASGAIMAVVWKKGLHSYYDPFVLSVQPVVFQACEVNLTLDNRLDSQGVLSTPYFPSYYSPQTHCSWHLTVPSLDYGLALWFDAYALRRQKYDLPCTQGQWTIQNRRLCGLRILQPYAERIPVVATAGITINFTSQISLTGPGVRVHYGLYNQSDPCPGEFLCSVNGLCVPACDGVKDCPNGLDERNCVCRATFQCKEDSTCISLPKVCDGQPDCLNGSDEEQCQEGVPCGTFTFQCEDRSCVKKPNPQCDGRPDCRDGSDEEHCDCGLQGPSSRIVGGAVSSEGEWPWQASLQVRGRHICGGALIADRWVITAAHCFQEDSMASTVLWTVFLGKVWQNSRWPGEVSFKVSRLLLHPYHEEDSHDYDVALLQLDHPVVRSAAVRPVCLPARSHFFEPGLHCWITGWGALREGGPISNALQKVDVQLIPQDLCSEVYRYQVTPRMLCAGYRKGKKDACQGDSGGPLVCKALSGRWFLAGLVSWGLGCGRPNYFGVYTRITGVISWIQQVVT
The experiment in a line: Matriptase 2 inhibition, fluorescence based assay (Method I). In kind it is biochemical. As to conditions: Table A; Ki of Matriptase-2; read-out: Mat-2 Ki. On the procedure:
• Method I: Test compounds were evaluated for their potential to inhibit Human Recombinant Matriptase 2 (in-house) using fluorescence based assay. The concentration of Recombinant Matriptase 2 and the substrate used in the assay was: 3.5 nM (In-house Matriptase 2) and 62 μM (Boc-Gln-Ala-Arg-7-amido-4-methyl coumarin hydrobromide −Cat log: I-1550 from Bachem) respectively. The assay buffer used was 50 mM TRIS pH 7.5, 150 mM NaCl, 0.01% Gelatin TCL059 Himedia). The assay was performed using 384 well black flat bottom plate from grenier (Cat log: 781076) at 25° C. The enzyme and compound were preincubated for 30 mins, the plate was read at 60 mins after substrate addition at wavelength Ex: 360/Em: 480 nm. The final assay volume was 20 μl. A stock solution of compounds was initially prepared in DMSO and appropriate dilutions were made and IC50 was determined for all the compounds (final DMSO conc in the assay was 1%). All the measurements were carried out using the Spectramax M5, Molecular devices.
To determine Ki values, dose response curves were generated by plotting percentage inhibition as a function of inhibitor concentration and the data was fitted to sigmoidal non-linear regression equation (variable slope) using Graph Pad prism software V8.
For `NCc1ccc2cc(C(=O)OCC3CCN(CC4CC4)CC3)n(Cc3cc(NS(=O)(=O)Cc4ccccc4)cc4ccccc34)c2n1` [Compound 21, [1-(cyclopropylmeth-yl)piperidin-4-yl]methyl 6-(aminomethyl)-1-{[3-(phenylmethanesulfon-amido)naphthalen-1-yl]-methyl}-1H-pyrrolo[2,3-b]pyridine-2-carboxylate], the inhibition constant (Ki) was not above 100 nM.

With `NCc1ccc2cc(C(=O)OCCN3CCOCC3)n(Cc3cc(NS(=O)(=O)Cc4ccsc4)cc4ccccc34)c2n1` [Compound 168, 2-(morpholin-4-yl)ethyl 6-(aminomethyl)-1-({3-[(thiophen-3-yl)methane-sulfonamido]naphthalen-1-yl}methyl)-1H-pyr-rolo[2,3-b]pyridine-2-carboxylate], the inhibition constant Ki is not above 100 nM.

Turning to `CN1CCC(CCOC(=O)c2cc3ccc(CN)nc3n2Cc2cc(NS(=O)(=O)Cc3ccsc3)cc3ccccc23)CC1` [Compound 174], the Ki was not above 100 nM.

`CC(C)COC(=O)c1cc2ccc(CN)nc2n1Cc1cc(NS(=O)(=O)Cc2ccccc2)cc2ccccc12` [Compound 121, 2-methylpropyl 6-(aminomethyl)-1-{[3-(phenylmethanesulfon-amido)naphthalen-1-yl]-methyl}-1H-pyrrolo[2,3-b]pyridine-2-carboxylate]: the inhibitory constant (Ki) is 500 to 3000 nM.

For `CC(C)N1CCC(OC(=O)c2cc3ccc(CN)nc3n2Cc2cc(NS(=O)(=O)Cc3ccccc3)cc3ccccc23)CC1` [Compound 16, 1-(propan-2-yl)piperidin-4-yl 6-(aminomethyl)-1-{[3-(phenylmethane-sulfonamido)naphthalen-1-yl]methyl}-1H-pyr-rolo[2,3-b]pyridine-2-carboxylate], the Ki was not above 100 nM.

`Cc1cccc(C)c1CS(=O)(=O)Nc1cc(Cn2c(C(=O)O)cc3ccc(CN)nc32)c2ccccc2c1` [Compound 195, 6-(aminomethyl)-1-({3-[(2,6-dimethylphenyl)-methanesulfonamido]-naphthalen-1-yl}methyl)-1H-pyrrolo[2,3-b]pyr-idine-2-carboxylic acid]: the Ki was not above 100 nM.

`CN1CCC(COC(=O)c2cc3ccc(CN)nc3n2Cc2cc(NS(=O)(=O)Cc3ccsc3)cc3ccccc23)CC1` [Compound 5]: the Ki is not above 100 nM.

With `CN(C)C(=O)CCCNC(=O)c1cc2ccc(CN)nc2n1Cc1cc(NS(=O)(=O)Cc2ccccc2)cc2ccccc12` [Compound 38, 4-{[6-(aminomethyl)-1-{[3-(phenylmethane-sulfonamido)naphthalen-1-yl]methyl}-1H-pyr-rolo[2,3-b]pyridin-2-yl]-formamido}-N,N-dimethylbutanamide], the inhibition constant Ki was not above 100 nM.

As for `CN1CCC(CN(C)C(=O)c2cc3ccc(CN)nc3n2Cc2cc(NS(=O)(=O)Cc3ccccc3)cc3ccccc23)CC1` [Compound 26, 6-(aminomethyl)-N-methyl-N-[(1-methyl-piperidin-4-yl)methyl]-1-{[3-(phenylmethane-sulfonamido)naphthalen-1-yl]methyl}-1H-pyr-rolo[2,3-b]pyridine-2-carboxamide], the inhibition constant Ki is not above 100 nM.

Consider `Cc1cccc(C)c1CS(=O)(=O)Nc1cc(Cn2c(C(=O)NCCC3CCN(C)CC3)cc3ccc(CN)nc32)c2ccccc2c1` [Compound 183, 6-(aminomethyl)-1-({3-[(2,6-dimethylphenyl)-methanesulfonamido]-naphthalen-1-yl}meth-yl)-N-[2-(1-methylpiper-idin-4-yl)ethyl]-1H-pyr-rolo[2,3-b]pyridine-2-carboxamide], for which the Ki is not above 100 nM.

Turning to `CCC1(COC(=O)c2cc3ccc(CN)nc3n2Cc2cc(NS(=O)(=O)Cc3ccccc3)cc3ccccc23)CCN(C)CC1` [Compound 31, (4-ethyl-1-methylpiper-idin-4-yl)methyl 6-(aminomethyl)-1-{[3-(phenylmethanesulfon-amido)naphthalen-1-yl]-methyl}-1H-pyrrolo[2,3-b]pyridine-2-carboxylate], the Ki is not above 100 nM.

For the compound `NCc1ccc2cc(C(=O)OCCN(Cc3ccccc3)CC3CC3)n(Cc3cc(NS(=O)(=O)Cc4ccccc4)cc4ccccc34)c2n1` [Compound 136, 2-[benzyl(cyclopropyl-methyl)amino]ethyl 6-(aminomethyl)-1-{[3-(phenylmethanesulfon-amido)naphthalen-1-yl]-methyl}-1H-pyrrolo[2,3-b]pyridine-2-carboxylate], the Ki was in the range of 500 to 3000 nM.

Staying with this experiment, now noted: Table A; Ki of Matriptase-2 given as class symbols; read-out: Mat-2 Ki.
On to `C[C@H](c1ccccc1)S(=O)(=O)Nc1cc(Cn2c(C(=O)OCC3CCN(C)CC3)cc3ccc(CN)cc32)c2ccccc2c1` [Compound 378, (1-methylpiperidin-4-yl)-methyl 6-(aminomethyl)-1-({3-[(1R)-1-phenyl-ethane-sulfonamido]-naphthalen-1-yl}methyl)-1H-indole-2-carboxylate], for which the inhibition constant (Ki) is not above 100 nM.

With `COCCN1CCC(CS(=O)(=O)Nc2cc(Cn3c(C(=O)OCC4CCN(C)CC4)cc4ccc(CN)nc43)c3ccccc3c2)CC1` [Compound 253], the inhibitory constant (Ki) lay within 500 to 3000 nM.

Turning to `C[C@@H](CN1CCCCC1)OC(=O)Nc1cc(Cn2c(C(=O)O)cc3ccc(CN)nc32)c2ccccc2c1` (racemic) [Compound 339, rac-6-(aminomethyl)-1-({3-[({[(2R)-1-(piperidin-1-yl)propan-2-yl]oxy}-carbonyl)amino]naph-thalen-1-yl}methyl)-1H-pyrrolo[2,3-b]pyridine-2-carboxylic acid], the inhibition constant Ki was 500 to 3000 nM.

With `CN1CCC(COC(=O)c2cc3ccc(CN)nc3n2Cc2cc(NS(=O)(=O)Cc3ccccc3O)cc3ccccc23)CC1` [Compound 203], the inhibition constant Ki was not above 100 nM.

As for `NCc1ccc2cc(C(=O)O)n(Cc3cc(NS(=O)(=O)CCC4CCNCC4)cc4ccccc34)c2n1` [Compound 223, 6-(aminomethyl)-1-({3-[2-(piperidin-4-yl)-ethanesulfonamido]-naphthalen-1-yl}meth-yl)-1H-pyrrolo[2,3-b]-pyridine-2-carboxylic acid], the inhibition constant Ki fell in the range of 100 to 500 nM.

Take `CN1CCC(COC(=O)c2cc3ccc(CN)nc3n2Cc2cc(N[S@@+]([O-])Cc3ccccc3)cc3ccccc23)CC1` (racemic) [Compound 367]: the Ki is 500 to 3000 nM.

In the case of `CC1(O)CCN(C(=O)Nc2cc(Cn3c(C(=O)O)cc4ccc(CN)nc43)c3ccccc3c2)CC1` [Compound 300], the inhibitory constant (Ki) lay within 500 to 3000 nM.

As to `CCOC(=O)c1cc2ccc(CNC(=O)c3ccccc3COC(C)=O)nc2n1Cc1cc(NS(=O)(=O)Cc2ccccc2)cc2ccccc12` [Compound 358, ethyl 6-[({2-[(acetyl-oxy)methyl]phenyl}-formamido)methyl]-1-{[3-(phenylmethane-sulfonamido)naphthalen-1-yl]methyl}-1H-pyr-rolo[2,3-b]pyridine-2-carboxylate], the inhibitory constant (Ki) lay in the range of 500 to 3000 nM.

In the case of `Cc1cc(CS(=O)(=O)Nc2cc(Cn3c(C(=O)O)cc4ccc(CN)nc43)c3ccccc3c2)no1` [Compound 250, 6-(aminomethyl)-1-({3-[(5-methyl-1,2-oxazol-3-yl)methanesulfon-amido]naphthalen-1-yl}-methyl)-1H-pyrrolo[2,3-b]pyridine-2-carboxylic acid], the inhibition constant (Ki) fell in the range of 500 to 3000 nM.

Staying with this experiment, now noted: Table B; Human Recombinant Matriptase 2, 3.5 nM enzyme, 62 μM substrate, 30 mins preincubation; read-out: Mean Ki.
As to `CN1CC(COC(=O)c2cc3ccc(CN)nc3n2Cc2cc(NS(=O)(=O)Cc3ccccc3)cc3ccccc23)CC1=O` (stereo not shown) [Compound 2.21], the inhibition constant Ki was not above 100 nM.
